Article PMC6604423, “A New Flavanone as a Potent Antioxidant Isolated from Chromolaena odorata L. Leaves” (Evidence-based Complementary and Alternative Medicine : eCAM, 2019)
Read-outs that look alike come from different tables or passages of the source.

What was measured:
[1] = molecular target: α-glucosidase rat intestine enzyme; assay: α-Glucosidase inhibitory activity assay (rat intestinal acetone powder, maltose substrate); type: biochemical; settings: 10 mM maltose, pH 6.9, 37°C, 10 min, mean ± SD, triplicate
Procedure: First, rat intestinal acetone powder (1 g) was suspended in 30 mL of normal saline. This suspended solution was sonicated for five minutes at 4°C. After centrifugation (12,000 rpm, 30 minutes, 4°C), the resulting supernatant was used for the assay. Briefly, a mixture of 10 μL samples, 30 μL of 0.1 M phosphate buffer (pH 6.9), 20 μL of 10 mM maltose, 80 μL glucose kit, and 20 μL of enzyme supernatant were incubated in 96-well plates at 37°C for 10 minutes. Acarbose was used as a standard. The absorbance was recorded at 490 nm by microplate reader (Biotek ELx800UV). The inhibitory activity was determined from the formula as follows:(2) Inhibition%=Ablank−Asample/Ablank×100 where Ablank = Aenzyme reaction − Ablank of enzyme reaction and Asample = Asample reaction − Ablank of sample reaction.

[2] = ABTS radical cation scavenging assay; settings: for ABTS IC50: 4 min, room temperature, 734 nm, mean ± SD, triplicate; for IC50: same result expressed in μM
Procedure: Free radical scavenging by ABTS radical was based on the method described previously by us. […] Those two solutions were mixed and incubated for 12-16 hours to obtain ABTS radical cation solution which is a dark blue solution. It was added with ± 274 mL of ethanol to give an absorbance of 0.7 ± 0.02 units at 734 nm for making a working solution. 1 mL of working solution was mixed with 10 μL of samples (n-hexane, dichloromethane, ethyl acetate, methanol, and water extracts) at maximum dissolved concentration in DMSO and mixed well. Finally, the mixed sample solution was incubated for four minutes at room temperature; then, the absorbance (As) of the reaction mixture was measured by UV-Vis spectrophotometers at 734 nm. The mixed solution between DMSO and the working solution was used as blank to give the blank absorbance (Ab). Trolox was used as a standard. […] The IC50 value was expressed as a quantity of an extract inhibitory concentration against a half of ABTS radicals.

[3] = in vitro, C. odorata leaves; cited from earlier work
[4] = DPPH radical scavenging assay; settings: 20 min, room temperature, 517 nm; mean ± SD, triplicate
Procedure: First, DPPH solution (6 × 10^−5 M) was separated by dissolving 2.37 mg of DPPH in 100 mL of methanol to obtain a working solution. […] Finally, the mixed sample solution was incubated for 20 minutes at room temperature. Then, the absorbance (As) of the reaction mixture was measured by UV-Vis spectrophotometer at 517 nm. The mixed solution between methanol and the working solution was used as blank to give the blank absorbance (Ab). Gallic acid was used as a standard. The inhibitory activity was calculated by (1).

COc1cc(O)c2c(c1)OC(c1cc(O)ccc1OC)CC2=O (centres unmarked) [Odoratenin (1), 5,3'-dihydroxy-7,6'-dimethoxyflavanone]
α-Glucosidase inhibition IC50 [1]: >62.5 µg/mL | ABTS IC50 [2]: 7.51 ± 1.57 µg/mL | IC50 [2]: 23.7 µM

C[C@H]1O[C@H](O[C@H]2[C@H](O)[C@@H](O)[C@@H](O[C@H]3[C@H](O)[C@@H](O)C(O)O[C@@H]3CO)O[C@@H]2CO)[C@H](O)[C@@H](O)[C@@H]1N[C@H]1C=C(CO)[C@@H](O)[C@H](O)[C@H]1O (some centres unmarked) [Acarbose, acarbose]
α-Glucosidase inhibition IC50 [1]: 7.67 ± 1.86 µg/mL

Cc1c(C)c2c(c(C)c1O)CCC(C)(C(=O)O)O2 (centres unmarked) [Trolox, 6-hydroxy-2,5,7,8-tetramethylchromen-2-carboxylate acid]
ABTS IC50 [2]: 7.84 ± 0.45 µg/mL | IC50 [2]: 31.3 µM

O=C1O[C@H]([C@@H](O)CO)C(O)=C1O [ascorbic acid]
ABTS IC50 [3]: 1000 µg/mL

O=C(O)c1cc(O)c(O)c(O)c1 [Gallic acid, gallic acid]
DPPH IC50 [4]: 1.11 ± 0.42 µg/mL
